Experimental data taken from patent publication US20090270342A1, “IMMUNOREGULATORY AGENT” (priority 2006, published 2009).

Tests used:
[1] = system: IgA and IgG in cecal content; assay: pH, weight, IgA and IgG of cecal content (Experiment 2); type: in vivo, mice; details: Lactosucrose 5% (w/w) diet, four weeks
Description: The effect of lactosucrose on the enhancement of gut immunity was investigated by measuring the amounts of IgA and IgG in cecal content. Mice reared for four weeks on the test diet comprising 5% (w/w) of lactosucrose or the control diet, “AIN-93G”, in Experiment 1 were sacrificed and the cecums were extirpated. Successively, the cecal content in each mouse was collected from the cecum and the pH, weight, the amounts of IgA and IgG were measured. The amounts of IgA and IgG were determined by ELISA using an anti-IgA antibody and that using an anti-IgG antibody (Mouse IgG ELISA Quantitation Kit produced by Bethyl Laboratories, Inc., Texas, USA), and expressed by mg/g-cecal content and ng/g-cecal content, respectively. The percentages in parentheses in Table 2 mean the relative values to those of the control.

[2] = system: anti-OVA-IgE, IgG1, IgG2a in serum; assay: Anti-OVA antibody in serum of OVA/alum-sensitized mice (Experiment 4); type: in vivo; details: for Anti-OVA-IgG1 in serum / Anti-OVA-IgG2a in serum / Anti-OVA-IgG1 in serum, relative value to control / Anti-OVA-IgG2a in serum, relative value to control: two weeks after the second sensitization
Description: (§1) In order to investigate the effect of lactosucorse on systemic immunity, antibody level in serum was measured. Similarly as in Experiment 1, female BALB/c mice (six weeks old) were preliminary reared for one week on “AIN-93G”, the same standard purified diet as used in Experiment 1. Successively, “NYU-KA OLIGO 700”, a saccharide composition comprising 71.4% (w/w), on a dry solid basis, of lactosucrose commercialized by Hayashibara Shoji Inc., Okayama, Japan, was incorporated into the above purified diet, in which corn starch equal to the amount of the saccharide composition comprising lactosucrose had been removed, to give a lactosucrose content of 2% (w/w) or 5% (w/w), and five to seven mice/group were allowed to ingest the resulting test diet freely. Mice, allowed to ingest “AIN-93G”, as the standard purified diet, were used as control. At 10 days after from starting the administration of the test diet, mice were sensitized to antigen by administrating 20 μg of ovalbumin (OVA) (grade V, commercialized by Sigma Corporation) as antigen and 4.5 mg of “IMJECT®”, alum commercialized by Pierce ThermoScientific as adjuvant, into the peritoneal cavity. Successively, 15 days after from the first sensitization, the second sensitization was carried out by the same procedure. The blood was collected from caudal vein of mice at one, two, and three weeks after from the second sensitization, the serum was collected by centrifugation, and the amount of IgE to OVA was measured by EIA. In the cases of IgG1 and IgG2a, the amount of antibody was measured using serum collected at two weeks after from the second sensitization. The IgE and IgG2a titers were measured by capture EIA and IgG1 titer was measured by indirect EIA. Each titer was calculated by calibration curve prepared by using anti-OVA mouse serum (IgE: 1.760 U/ml, IgG1: 128,000 U/ml, IgG2a: 7,040 u/ml) as a standard serum. The amounts of IgE at one, two, or three weeks after from the second sensitization are in Table 5, and the amounts of IgG1 and IgG2a of two weeks after from the second sensitization are in Table 6. The percentages in parentheses in tables mean a relative value to the antibody concentration in serum of the control mice.

[3] = system: anti-Cry j 1-IgE, IgG1 in serum; assay: Anti-Cry j 1 antibody in serum of Cry j 1/alum-sensitized mice (Experiment 5); type: in vivo; details: for Anti-Cry J 1-IgG1 in serum / Anti-Cry J 1-IgG1 in serum, relative to control: two weeks after the second sensitization
Description: as §1
In order to investigate the usefulness of lactosucrose ingestion for preventing or treating allergy to cedar pollen, the effect of lactosucrose for suppressing the production of IgE, caused by Cry j 1, a cedar pollen allergen, was investigated as follows. Except for using 20 μg of “PURIFIED CEDAR POLLEN ALLERGEN Cry j 1”, Cry j 1 commercialized by Seikagaku Corporation, Tokyo, Japan, as a substitute for OVA, the experiment was carried out by the same procedure as in Experiment 4, and the amount of anti-Cry j 1-IgE was measured at one and two weeks after the second sensitization. Further, the amount of anti-Cry j 1-IgG1 was also measured at two weeks after the second sensitization. The amounts of anti-Cry j 1-IgE and anti-Cry j 1-IgG1 were measured by the same procedure as in Experiment 4 except for using “PURIFIED CEDAR POLLEN ALLERGEN Cry j 1-Biotin”, commercialized by Seikagaku Corporation, Tokyo, Japan, as a solid phase. The results for IgE and IgG1 are in Tables 7 and 8, respectively.

[4] = Lactosucrose 2% (w/w) diet, one week after the 2nd sensitization
[5] = Lactosucrose 2% (w/w) diet, two weeks after the 2nd sensitization
[6] = Lactosucrose 2% (w/w), one week after the 2nd sensitization
[7] = Lactosucrose 2% (w/w), two weeks after the 2nd sensitization
[8] = Lactosucrose 5% (w/w) diet, one week after the 2nd sensitization
[9] = Lactosucrose 5% (w/w) diet, two weeks after the 2nd sensitization
[10] = Lactosucrose 5% (w/w), one week after the 2nd sensitization
[11] = Lactosucrose 5% (w/w), two weeks after the 2nd sensitization

## OC[C@H]1O[C@@H](O[C@H]2[C@H](O)[C@@H](O)[C@@H](O[C@]3(CO)O[C@H](CO)[C@@H](O)[C@@H]3O)O[C@@H]2CO)[C@H](O)[C@@H](O)[C@H]1O [Lactosucrose, β-D-galactosyl-(1,4)-α-D-glucosyl-(1,2)-β-D-fructoside]
[1]
  IgA in cecal content: 5.6 ± 1.6 mg/g
  IgA in cecal content, relative value to control: (982%)
  IgG in cecal content: 140 ± 54 ng/g
  IgG in cecal content, relative value to control: (117%)
  Weight of cecal content: 0.22 ± 0.051 g
  Weight of cecal content, relative value to control: (169%)
  pH of cecal content: 6.63 ± 0.27
[1]; versus control
  Increase of the amount of secreted IgA in cecal content: about 10 folds
[2]; [4]
  Anti-OVA-IgE in serum: 270 ± 160 U/ml
[2]; Lactosucrose 2% (w/w) diet, three weeks after the 2nd sensitization
  Anti-OVA-IgE in serum: 110 ± 62 U/ml
[2]; [5]
  Anti-OVA-IgE in serum: 150 ± 35 U/ml
[2]; Lactosucrose 2% (w/w) diet
  Anti-OVA-IgG1 in serum: 27 ± 10 ×10^4 U/ml
  Anti-OVA-IgG2a in serum: 4.0 ± 3.4 ×10^4 U/ml
[2]; [6]
  Anti-OVA-IgE in serum, relative value to control: (87%)
[2]; Lactosucrose 2% (w/w), three weeks after the 2nd sensitization
  Anti-OVA-IgE in serum, relative value to control: (52%)
[2]; [7]
  Anti-OVA-IgE in serum, relative value to control: (58%)
[2]; Lactosucrose 2% (w/w)
  Anti-OVA-IgG1 in serum, relative value to control: (68%)
  Anti-OVA-IgG2a in serum, relative value to control: (41%)
[2]; [8]
  Anti-OVA-IgE in serum: 290 ± 77 U/ml
[2]; Lactosucrose 5% (w/w) diet, three weeks after the 2nd sensitization
  Anti-OVA-IgE in serum: 160 ± 57 U/ml
[2]; [9]
  Anti-OVA-IgE in serum: 120 ± 32 U/ml
[2]; Lactosucrose 5% (w/w) diet
  Anti-OVA-IgG1 in serum: 28 ± 7.5 ×10^4 U/ml
  Anti-OVA-IgG2a in serum: 4.8 ± 3.8 ×10^4 U/ml
[2]; [10]
  Anti-OVA-IgE in serum, relative value to control: (94%)
[2]; Lactosucrose 5% (w/w), three weeks after the 2nd sensitization
  Anti-OVA-IgE in serum, relative value to control: (48%)
[2]; [11]
  Anti-OVA-IgE in serum, relative value to control: (46%)
[2]; Lactosucrose 5% (w/w)
  Anti-OVA-IgG1 in serum, relative value to control: (70%)
  Anti-OVA-IgG2a in serum, relative value to control: (49%)
[3]; [4]
  Anti-Cry j 1-IgE in serum: 351 ± 277 U/ml
[3]; [5]
  Anti-Cry j 1-IgE in serum: 239 ± 180 U/ml
[3]; Lactosucrose 2% (w/w) diet
  Anti-Cry J 1-IgG1 in serum: 10.3 ± 6.01 ×10^4 U/ml
[3]; [6]
  Anti-Cry j 1-IgE in serum, relative to control: (44%)
[3]; Lactosucrose 2% (w/w), one week after the 2nd sensitization, listed as lactosucrose
  Anti-Cry j 1-IgE in serum, relative to control: 44%
[3]; [7]
  Anti-Cry j 1-IgE in serum, relative to control: (23%)
[3]; Lactosucrose 2% (w/w), two weeks after the 2nd sensitization, listed as lactosucrose
  Anti-Cry j 1-IgE in serum, relative to control: 23%
[3]; Lactosucrose 2% (w/w)
  Anti-Cry J 1-IgG1 in serum, relative to control: (80%)
[3]; [8]
  Anti-Cry j 1-IgE in serum: 620 ± 157 U/ml
[3]; [9]
  Anti-Cry j 1-IgE in serum: 404 ± 114 U/ml
[3]; Lactosucrose 5% (w/w) diet
  Anti-Cry J 1-IgG1 in serum: 7.51 ± 2.89 ×10^4 U/ml
[3]; [10]
  Anti-Cry j 1-IgE in serum, relative to control: (77%)
[3]; [11]
  Anti-Cry j 1-IgE in serum, relative to control: (38%)
[3]; Lactosucrose 5% (w/w)
  Anti-Cry J 1-IgG1 in serum, relative to control: (58%)
